ChEMBL document CHEMBL3286251, “Treatment of Immunological or Inflammatory Disorders with ITK Kinase Inhibitors” (ACS Med Chem Lett, 2014)

Molecular target: T1, Tyrosine-protein kinase ITK/TSK (Homo sapiens, UniProt Q08881)
T1 sequence (Q08881 whole entry): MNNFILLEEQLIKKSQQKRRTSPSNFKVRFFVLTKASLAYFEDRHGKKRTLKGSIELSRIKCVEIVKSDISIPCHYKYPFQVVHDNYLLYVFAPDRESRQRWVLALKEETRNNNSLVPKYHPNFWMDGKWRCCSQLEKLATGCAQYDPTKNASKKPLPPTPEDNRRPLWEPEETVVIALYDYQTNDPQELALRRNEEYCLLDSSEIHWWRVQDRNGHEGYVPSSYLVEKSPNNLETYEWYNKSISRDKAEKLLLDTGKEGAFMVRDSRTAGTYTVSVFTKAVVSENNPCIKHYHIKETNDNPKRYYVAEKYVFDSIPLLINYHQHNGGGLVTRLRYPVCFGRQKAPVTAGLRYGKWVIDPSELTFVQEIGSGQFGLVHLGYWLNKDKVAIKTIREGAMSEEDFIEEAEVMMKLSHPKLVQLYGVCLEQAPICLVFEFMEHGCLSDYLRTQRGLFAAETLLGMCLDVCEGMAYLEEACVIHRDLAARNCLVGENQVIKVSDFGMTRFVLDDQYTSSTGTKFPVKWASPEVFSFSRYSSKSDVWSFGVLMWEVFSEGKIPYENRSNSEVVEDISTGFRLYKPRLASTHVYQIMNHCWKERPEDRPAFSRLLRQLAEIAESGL
Experiment: Inhibition of ITK (unknown origin) using Acetyl-EFPIYDFLPAKKK-NH2 peptide as substrate after 1 hr by LC-MS analysis

CC12Cc3[nH]nc(C(=O)Nc4cnn(C(CS(C)(=O)=O)c5cccnc5)c4)c3CC1C2 (stereo unspecified)
Ki: < 0.1 nM
